Measurements as given in patent publication US20080026996A1, “Selective Vpac2 Receptor Reptide Agonists” (ELI LILLY AND COMPANY, priority 2004, published 2008).
Where “and” joins values, the source holds several entries; their conditions need not be identical. Identical values can stand only once. Where no end group is shown, it is not given here.

target: T1, DPP-IV (Sus scrofa, UniProt P22411); test: DPP-IV HPLC assay: in vitro incubation with purified dipeptidyl-peptidase IV; assay type: in vitro ADME, Porcine; conditions: Time = 0 hours at 37° C.
T1 construct: purchased Sigma
T1 sequence (P22411 whole entry): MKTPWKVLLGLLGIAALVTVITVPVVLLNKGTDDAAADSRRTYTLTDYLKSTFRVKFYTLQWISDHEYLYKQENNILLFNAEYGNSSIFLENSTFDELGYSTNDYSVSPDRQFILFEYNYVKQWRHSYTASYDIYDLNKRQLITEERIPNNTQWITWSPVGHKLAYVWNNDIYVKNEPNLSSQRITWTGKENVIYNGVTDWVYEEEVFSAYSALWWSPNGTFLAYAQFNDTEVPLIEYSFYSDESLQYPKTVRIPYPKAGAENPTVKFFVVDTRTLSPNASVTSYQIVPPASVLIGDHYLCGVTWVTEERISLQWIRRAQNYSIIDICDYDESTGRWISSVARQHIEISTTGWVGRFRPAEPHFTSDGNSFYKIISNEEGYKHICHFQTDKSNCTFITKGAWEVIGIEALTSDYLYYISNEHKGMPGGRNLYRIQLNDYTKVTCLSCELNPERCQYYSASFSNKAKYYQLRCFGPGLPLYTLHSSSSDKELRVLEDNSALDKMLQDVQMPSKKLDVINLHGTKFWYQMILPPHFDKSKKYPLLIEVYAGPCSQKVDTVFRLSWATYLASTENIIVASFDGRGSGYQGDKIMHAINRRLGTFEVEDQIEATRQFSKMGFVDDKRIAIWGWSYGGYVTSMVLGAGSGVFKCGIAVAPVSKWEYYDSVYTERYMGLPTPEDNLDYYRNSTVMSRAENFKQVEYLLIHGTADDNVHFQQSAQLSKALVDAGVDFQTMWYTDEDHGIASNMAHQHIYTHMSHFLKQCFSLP
Method: Part 1: Formulation of Selective VPAC2 Receptor Peptide Agonists: […]
Approximately 2 mg of lyophilized peptide is weighed and dissolved in approximately 1.6 mL de-ionized water. […] After incubation at room temperature for 30 minutes, 1/10th of the original volume 10×PBS is added. The pH is adjusted to between pH 7.2 and 7.6. The peptide solution is filtered through a 0.22 μm Millex-GV syringe filter (Millipore, Bedford Mass., USA). The peptide concentration is determined through absorption at 280 nm. The peptide concentration is then adjusted to 100 μM. The peptides are frozen at −20° C. for further use.
Part 2: In Vitro Incubation of Selective VPAC2 Receptor Peptide Agonists with Purified Dipeptidyl-Peptidase IV (DPP-IV):
The stability of selective VPAC2 receptor peptide agonists against proteolysis by DPP-IV is determined using 100 μL of a 100 μM peptide solution in 1×PBS. A 10 μL solution is removed and quenched with 40 μL of 0.1% trifluoroacetic acid (TFA)/20% acetonitrile (ACN). This solution (20 μL) is analyzed by reversed-phase HPLC. The reversed-phase analysis consists of a Zorbax 300SB-C8 column (3.5 micron, 4.6×50 mm, Alltech Associates, Inc., Deerfield Ill., USA) running a 15-40% B gradient over 15 minutes at 60° C. where A-buffer is 0.1% (v/v) TFA in water and B-buffer is 0.085% (v/v) TFA in ACN. The peak area is integrated. This peak area serves as an internal control as 100% intact peptide.
A 10 μL aliquot of a 1.12 mU/μL solution of DPP-IV (Sigma, St. Louis, La., USA) is added to 90 μL of a 100 μM solution of peptide, resulting in a substrate concentration of 90 μM peptide. The reaction mixture is then stored at 37° C. At various time-points, 10 μL of solution is removed, quenched with 40 μL 0.1% TFA/20% ACN, and analyzed by reversed-phase HPLC as described above. The remaining full length peptide concentration (nM) at each timepoint, except time=0, is calculated using following formula: [formula]
For the time=0 timepoint, the concentration (nM) is calculated using the following formula: [formula]

With “VPAC2-P44 (HVDAVFTDNYTRLRKQVAAKKYLQSIKNKRYGGPSSGAPPPS; not fully specified (N-terminus))” the “Concentration (nM) of Remaining Main Peak by RP-HPLC after Incubation of Peptide with Purified Porcine DPP-IV” value was 9.0 nM.

same assay, conditions: Time = 2 hours at 37° C.

With “VPAC2-P44 (HVDAVFTDNYTRLRKQVAAKKYLQSIKNKRYGGPSSGAPPPS; not fully specified (N-terminus))” the “Concentration (nM) of Remaining Main Peak by RP-HPLC after Incubation of Peptide with Purified Porcine DPP-IV” value was 6.4 nM and 7.9 nM and 4.5 nM and 6.5 nM.

target: T2, human PAC1 (Homo sapiens, UniProt P41586); test: DiscoveRx cAMP in vitro potency, CHO-PO cells transiently transfected with human PAC1 receptor; assay type: cell-based; design: expressed in transfected cells; host or cells: CHO-PO, transient (Lipofectamine); conditions: cAMP generation; mean of two independent runs; read-out: Human PAC1 Receptor: DiscoveRx EC50
T2 sequence (P41586 21-468): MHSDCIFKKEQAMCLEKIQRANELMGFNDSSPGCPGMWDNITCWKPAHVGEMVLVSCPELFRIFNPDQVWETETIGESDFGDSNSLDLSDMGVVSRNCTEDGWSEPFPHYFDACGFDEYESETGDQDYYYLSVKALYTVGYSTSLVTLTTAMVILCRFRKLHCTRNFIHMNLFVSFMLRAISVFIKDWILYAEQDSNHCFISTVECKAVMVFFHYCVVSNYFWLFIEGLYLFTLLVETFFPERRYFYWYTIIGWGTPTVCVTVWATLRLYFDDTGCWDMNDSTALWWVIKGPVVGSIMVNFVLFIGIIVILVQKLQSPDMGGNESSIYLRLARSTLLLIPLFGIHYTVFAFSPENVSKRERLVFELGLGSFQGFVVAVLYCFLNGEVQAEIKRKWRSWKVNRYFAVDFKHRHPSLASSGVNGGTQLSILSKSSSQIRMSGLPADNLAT
Method: (§1) Also, the cells are washed twice. The cells are incubated in assay buffer plus IBMX for 15 minutes at room temperature. […] The stimuli are present for 30 minutes. Then, the assay buffer is gently removed. […] At day 3, the assay described above for the VPAC2 receptor cell line is performed.

Compared with “H-HSDAVFTDNYTRLRKQVAAKKYLQSIKNKRYC [Agonist P37]”, “H-HSDAVFTDNYTRLRKQVAAKKYLQSIQNKRYGGPSSGAPPPS [Agonist P74]” is 4.1-fold higher in EC50: 35.6 nM for the first, 145 nM for the second.

Going from “H-HTDAVFTDNYTRLRKQVAAKKYLQSIKNKRYGGPSSGAPPPS [Agonist P45]” to “HGDAVFTDNYTRLRKQVAAKKYLQSIKNKRYGGPSSGAPPPS [Agonist P43]”, the EC50 falls from 315 nM to 104 nM (3-fold).

First: HLDAVFTDNYTRLRKQVAAKKYLQSIKNKRYGGPSSGAPPPS [Agonist P46]
Second: HSDAFFTDNYTRLRKQVAAKKYLQSIKNKRYGGPSSGAPPPS [Agonist P58]
The EC50 of the first is higher: > 1000 nM for the first, 35.6 nM for the second. The second is the more potent here.

“HSDATFTDNYTRLRKQVAAKKYLQSIKNKRYGGPSSGAPPPS [Agonist P62]” and “HSDAVFTDNWTRLRKQVAAKKYLQSIKNKRYGGPSSGAPPPS [Agonist P27]” cannot be ordered by EC50: 137 nM for the first, > 100 nM for the second.

First: HSDAWFTDNYTRLRKQVAAKKYLQSIKNKRYGGPSSGAPPPS [Agonist P69]
Second: HSDFVFTDNYTRLRKQVAAKKYLQSIKNKRYGGPSSGAPPPS [Agonist P52]
The EC50 of the first is lower: 104 nM for the first, > 1000 nM for the second.

“HSDTVFTDNYTRLRKQVAAKKYLQSIKNKRYGGPSSGAPPPS [Agonist P54]” and “HSDYVFTDNYTRLRKQVAAKKYLQSIKNKRYGGPSSGAPPPS [Agonist P51]” cannot be ordered by EC50: > 1000 nM for the first, > 1000 nM for the second.

target: T3, human VPAC2 (Homo sapiens, UniProt P41587); test: DiscoveRx cAMP in vitro potency, CHO-S cell line stably expressing human VPAC2 receptor; assay type: cell-based; conditions: cAMP generation; mean of two independent runs
T3 construct: expressed in transfected cells
T3 sequence (P41587 24-438): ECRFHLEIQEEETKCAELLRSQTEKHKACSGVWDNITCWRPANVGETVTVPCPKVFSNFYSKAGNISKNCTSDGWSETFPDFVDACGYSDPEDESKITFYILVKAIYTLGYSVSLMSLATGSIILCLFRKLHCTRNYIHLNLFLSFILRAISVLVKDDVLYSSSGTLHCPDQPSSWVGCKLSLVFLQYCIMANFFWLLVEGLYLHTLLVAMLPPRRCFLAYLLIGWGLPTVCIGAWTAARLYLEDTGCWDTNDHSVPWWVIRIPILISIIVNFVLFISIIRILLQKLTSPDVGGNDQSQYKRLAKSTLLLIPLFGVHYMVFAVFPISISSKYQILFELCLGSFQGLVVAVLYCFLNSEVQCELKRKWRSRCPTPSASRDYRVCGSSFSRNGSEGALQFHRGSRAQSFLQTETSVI
Method: as §1

“H-HTDAVFTDNYTRLRKQVAAKKYLQSIKNKRYGGPSSGAPPPS [Agonist P45]” and “HSDATFTDNYTRLRKQVAAKKYLQSIKNKRYGGPSSGAPPPS [Agonist P62]” are within 1.5-fold of each other in EC50: 11.6 nM for the first, 13.2 nM for the second.

With “HSDIVFTDNYTRLRKQVAAKKYLQSIKNKRYGGPSSGAPPPS [Agonist P50]” the EC50 was 19.3 nM.
